Assay results reported in US20250049785A1, “METHODS FOR THE TREATMENT OF GLIOBLASTOMA THAT MINIMIZE RADIATION DAMAGE IN SUSCEPTIBLE PATIENTS” (Rhode Island Hospital, priority 2021, published 2025).

Tests used:
[1] = tested on: IDH-1 wild-type glioblastoma; assay: Case presentation: elderly glioblastoma patient treated with involved-field radiotherapy and concomitant daily TMZ; type: in vivo, human
Description: A right-handed person had developed confusion, word-finding difficulty and slurred speech. These symptoms included making phone calls to their spouse and asking their non-sensible questions. They lost their words intermittently and forgot names of their family members on a number of occasions. They recounted old stories as if they were perseverating and answered questions in the affirmative without actually hearing the question. Their mood also became more irritable. Their past medical history was notable for a skull fracture after fall from horseback riding when they were a teenager. The patient had undergone a neurocognitive evaluation from a memory disorder clinic in a major academic medical center and they had been diagnosed with a non-specific memory disorder.
The patient underwent a gross total resection of the mass 4 days after the MRI. […] Immunohistochemical staining was negative for IDH-1 R132H mutation but positive for ATRX, GFAP, Olig-2 and p53.
The radiation administered consisted of standard external beam radiotherapy. The left temporal postsurgical cavity as well as the ipsilateral putamen and globus pallidus were included in the maximum 6,000 cGy isodose line (see FIG. 2). The brainstem was covered in the 3,000 cGy isodose line while the contralateral putamen and globus pallidus received up to 1,800 cGy of radiation.
They became more forgetful and developed imbalance. […]

[2] = bilateral hippocampal sparing whole brain radiation with memantine; cited from earlier work

| SMILES | cognitive status after treatment ([1]; after radiation (up to 6,000 cGy) and TMZ, patient with diffuse Lewy body disease at autopsy) | haematological toxicity limiting chemotherapy ([1]; person, concomitant daily TMZ with involved-field radiotherapy, only two weeks of chemotherapy administered) | neurocognitive function versus traditional fractionated whole brain radiotherapy [2] |
| --- | --- | --- | --- |
| Cn1nnc2c(C(N)=O)ncn2c1=O [TMZ, temozolomide] | rapidly deteriorated | low blood counts | – |
| CC12CC3CC(C)(C1)CC(N)(C3)C2 [memantine] | – | – | preserves neurocognitive function better |
